# Assay results published in patent publication US9826759B2, “Avenanthramide-enriched oat product” (THE QUAKER OATS COMPANY, priority 2014, dated 2017).
# Key:
# [1] = Oxygen Radical Absorbance Capacity (ORAC) assay, antioxidant activity; format: biochemical; settings: individual avenanthramides
# Description: To test the effect of varying avenanthramide ratios on antioxidant activity and inflammation in vitro, the inventors created an avenanthramide ingredient from pure avenanthramides which had similar ratios of avenanthramides 2c:2p:2f as was present in each of the three different oat fractions: hulls, flour, and trichomes. Thereafter, antioxidant activity was measured using the ORAC assay and anti-inflammatory effect was measured using an NF-κB inhibitory assay.
# The first avenanthramide ingredient was created from 2c:2p:2f having a ratio of about 1:1:1, which corresponded to the concentration present in oat hulls. The second avenanthramide ingredient had avenanthramides 2c:2p:2f having a ratio of about 1:1:2, which corresponded to the concentration present in oat flour. Finally, the last avenanthramide ingredient tested had 2c:2p:2f in a ratio of about 1:2:2, which corresponded to the concentration present in oat trichomes. An ORAC assay was used to measure the antioxidant activity of each of these avenanthramide ingredients and the results are presented in Table 1.
# [2] = Peterson et al., 2001; cited from earlier work
SMILES,ORAC [1],antioxidant activity in vitro [2]
"O=C(/C=C/c1ccc(O)c(O)c1)Nc1ccc(O)cc1C(=O)O [Avenanthramide 2c, avenanthramide 2c]",33741.00 A* TE/g,highest antioxidant activity
"COc1cc(/C=C/C(=O)Nc2ccc(O)cc2C(=O)O)ccc1O [Avenanthramide 2f, avenanthramide 2f]",21812.67 B TE/g,
"O=C(/C=C/c1ccc(O)cc1)Nc1ccc(O)cc1C(=O)O [Avenanthramide 2p, avenanthramide 2p]",18504.33 B TE/g,
